{
  "source": "patent US10597387B2",
  "about": "“Methods to treat lymphoplasmacytic lymphoma” (Dana-Farber Cancer Institute, Inc., priority 2013, dated 2020)",
  "test_in_all_cases": "KiNativ kinase profiling",
  "key": {"ABL, ARG": {"tested_on": "ABL, ARG", "type": "binding, Homo sapiens", "conditions": "Activation Loop, 1 μM, A375 cells"}, "BRAF": {"biological_target": "BRAF (Homo sapiens (Human), UniProt P15056, V600E)", "type": "binding", "conditions": "Lys2, A375 cells, read-out: inhibition of kinase labeling"}, "LOK": {"biological_target": "LOK (Homo sapiens (Human), UniProt O94804)", "type": "binding", "conditions": "Lys2, A375 cells, read-out: inhibition of kinase labeling"}, "PIP4K2A": {"biological_target": "PIP4K2A (Homo sapiens (Human), UniProt P48426)", "type": "binding", "conditions": "ATP, A375 cells, read-out: inhibition of kinase labeling"}, "[1]": {"tested_on": "ZC1/HGK, ZC2/TNIK, ZC3/MINK", "type": "binding, Homo sapiens", "conditions": "Lys2, 1 μM, A375 cells"}, "CK1a": {"biological_target": "CK1a (Homo sapiens (Human), UniProt P48729)", "type": "binding", "conditions": "Lys2, A375 cells, read-out: inhibition of kinase labeling"}, "AurA": {"biological_target": "AurA (Homo sapiens (Human), UniProt O14965)", "sequence (O14965 whole entry)": "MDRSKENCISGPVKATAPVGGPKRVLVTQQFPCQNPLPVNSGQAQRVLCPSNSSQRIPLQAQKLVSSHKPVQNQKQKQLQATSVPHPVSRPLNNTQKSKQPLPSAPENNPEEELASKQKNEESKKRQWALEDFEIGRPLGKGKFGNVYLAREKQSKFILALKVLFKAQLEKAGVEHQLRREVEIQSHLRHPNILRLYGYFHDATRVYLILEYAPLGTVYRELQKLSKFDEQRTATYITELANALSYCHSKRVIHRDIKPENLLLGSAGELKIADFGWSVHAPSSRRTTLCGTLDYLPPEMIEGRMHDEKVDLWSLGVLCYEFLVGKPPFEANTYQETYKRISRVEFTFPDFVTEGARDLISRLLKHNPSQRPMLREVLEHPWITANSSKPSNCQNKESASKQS", "type": "binding", "conditions": "Lys2, A375 cells, read-out: inhibition of kinase labeling"}, "SYK": {"biological_target": "SYK (Homo sapiens (Human), UniProt P43405)", "type": "binding", "conditions": "read-out: inhibition of kinase labeling"}, "IKKe, TBK1": {"tested_on": "IKKe, TBK1", "type": "binding, Homo sapiens", "conditions": "Lys2, 1 μM, A375 cells"}, "CDC2": {"biological_target": "CDC2 (Homo sapiens (Human), UniProt P06493)", "type": "binding", "conditions": "Lys2, A375 cells, read-out: inhibition of kinase labeling"}, "RSK2 domain1": {"biological_target": "RSK2 domain1 (Homo sapiens (Human), UniProt P51812)", "type": "binding", "conditions": "Lys2, A375 cells, read-out: inhibition of kinase labeling"}, "MAP2K1": {"biological_target": "MAP2K1 (Homo sapiens (Human), UniProt Q02750)", "sequence (Q02750 whole entry)": "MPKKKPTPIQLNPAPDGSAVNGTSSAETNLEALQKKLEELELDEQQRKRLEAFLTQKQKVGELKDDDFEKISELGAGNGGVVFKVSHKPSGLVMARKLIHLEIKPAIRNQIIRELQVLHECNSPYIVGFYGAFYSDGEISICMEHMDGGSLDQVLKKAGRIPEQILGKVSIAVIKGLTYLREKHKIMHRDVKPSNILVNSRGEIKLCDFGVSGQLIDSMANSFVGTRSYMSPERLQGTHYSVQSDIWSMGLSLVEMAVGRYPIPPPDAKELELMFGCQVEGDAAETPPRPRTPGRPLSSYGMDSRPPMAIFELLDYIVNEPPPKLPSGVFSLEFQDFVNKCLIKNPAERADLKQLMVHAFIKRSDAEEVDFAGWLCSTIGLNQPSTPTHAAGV", "type": "binding", "conditions": "Lys2, A375 cells, read-out: inhibition of kinase labeling"}, "LKB1": {"biological_target": "LKB1 (Homo sapiens (Human), UniProt Q15831)", "type": "binding", "conditions": "Lys2, A375 cells, read-out: inhibition of kinase labeling"}, "MAP3K4": {"biological_target": "MAP3K4 (Homo sapiens (Human), UniProt Q9Y6R4)", "type": "binding", "conditions": "Lys2, A375 cells, read-out: inhibition of kinase labeling"}, "JAK1": {"biological_target": "JAK1 (Homo sapiens (Human), UniProt P23458)", "type": "binding", "conditions": "Protein Kinase Domain, A375 cells, read-out: inhibition of kinase labeling"}, "CaMK1d": {"biological_target": "CaMK1d (Homo sapiens (Human), UniProt Q8IU85)", "type": "binding", "conditions": "Lys1, A375 cells, read-out: inhibition of kinase labeling"}, "FYN, SRC, YES": {"tested_on": "FYN, SRC, YES", "type": "binding, Homo sapiens", "conditions": "Activation Loop, 1 μM, A375 cells"}, "PIK3C3": {"biological_target": "PIK3C3 (Homo sapiens (Human), UniProt Q8NEB9)", "type": "binding", "conditions": "ATP, A375 cells, read-out: inhibition of kinase labeling"}, "Erk1": {"biological_target": "Erk1 (Homo sapiens (Human), UniProt P27361)", "type": "binding", "conditions": "Lys2, A375 cells, read-out: inhibition of kinase labeling"}, "PKD1, PKD2": {"tested_on": "PKD1, PKD2", "type": "binding, Homo sapiens", "conditions": "Lys2, 1 μM, A375 cells"}, "eEF2K": {"biological_target": "eEF2K (Homo sapiens (Human), UniProt O00418)", "type": "binding", "conditions": "ATP, A375 cells, read-out: inhibition of kinase labeling"}, "PYK2": {"biological_target": "PYK2 (Homo sapiens (Human), UniProt Q14289)", "sequence (Q14289 whole entry)": "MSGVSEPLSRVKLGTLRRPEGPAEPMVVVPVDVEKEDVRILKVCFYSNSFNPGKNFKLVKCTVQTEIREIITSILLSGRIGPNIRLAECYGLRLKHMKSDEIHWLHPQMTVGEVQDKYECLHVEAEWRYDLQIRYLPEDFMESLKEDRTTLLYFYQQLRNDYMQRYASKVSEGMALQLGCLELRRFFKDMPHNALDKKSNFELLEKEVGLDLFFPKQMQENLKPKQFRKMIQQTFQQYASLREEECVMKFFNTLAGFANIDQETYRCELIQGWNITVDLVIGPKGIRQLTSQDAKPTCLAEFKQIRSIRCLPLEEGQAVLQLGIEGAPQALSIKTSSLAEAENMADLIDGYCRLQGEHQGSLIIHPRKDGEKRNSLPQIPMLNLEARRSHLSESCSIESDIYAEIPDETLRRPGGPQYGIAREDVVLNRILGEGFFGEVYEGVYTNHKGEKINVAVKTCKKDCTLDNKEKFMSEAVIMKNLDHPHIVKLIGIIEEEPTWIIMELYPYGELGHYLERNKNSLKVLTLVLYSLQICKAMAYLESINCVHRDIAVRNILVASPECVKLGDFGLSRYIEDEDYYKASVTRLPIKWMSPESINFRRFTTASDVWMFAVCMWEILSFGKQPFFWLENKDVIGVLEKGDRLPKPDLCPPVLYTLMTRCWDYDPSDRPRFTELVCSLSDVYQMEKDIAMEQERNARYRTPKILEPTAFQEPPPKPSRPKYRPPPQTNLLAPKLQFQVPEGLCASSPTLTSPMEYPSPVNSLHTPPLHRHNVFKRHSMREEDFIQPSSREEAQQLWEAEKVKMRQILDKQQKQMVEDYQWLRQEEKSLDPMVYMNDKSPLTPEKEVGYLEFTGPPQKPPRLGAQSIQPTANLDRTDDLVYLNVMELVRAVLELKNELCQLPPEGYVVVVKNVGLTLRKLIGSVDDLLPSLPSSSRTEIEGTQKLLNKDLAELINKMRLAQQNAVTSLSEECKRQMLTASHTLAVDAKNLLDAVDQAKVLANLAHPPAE", "type": "binding", "conditions": "Activation Loop, A375 cells, read-out: inhibition of kinase labeling"}, "PKCi": {"biological_target": "PKCi (Homo sapiens (Human), UniProt P41743)", "sequence (P41743 whole entry)": "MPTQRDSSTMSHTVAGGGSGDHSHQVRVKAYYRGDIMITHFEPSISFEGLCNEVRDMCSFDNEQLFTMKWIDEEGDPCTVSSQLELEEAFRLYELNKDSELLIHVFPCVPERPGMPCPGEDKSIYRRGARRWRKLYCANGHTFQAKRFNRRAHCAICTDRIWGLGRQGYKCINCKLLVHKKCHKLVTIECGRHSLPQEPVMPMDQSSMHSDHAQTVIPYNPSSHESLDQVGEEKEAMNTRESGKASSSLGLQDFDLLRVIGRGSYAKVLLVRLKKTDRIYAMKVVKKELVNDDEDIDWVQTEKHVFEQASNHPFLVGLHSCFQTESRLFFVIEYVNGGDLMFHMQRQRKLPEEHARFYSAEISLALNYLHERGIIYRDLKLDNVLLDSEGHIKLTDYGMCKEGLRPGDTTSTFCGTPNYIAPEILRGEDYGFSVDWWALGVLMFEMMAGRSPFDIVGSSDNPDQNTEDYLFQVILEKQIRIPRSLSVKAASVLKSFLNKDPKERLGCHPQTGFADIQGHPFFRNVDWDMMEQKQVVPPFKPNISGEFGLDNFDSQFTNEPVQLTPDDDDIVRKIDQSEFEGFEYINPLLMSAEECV", "type": "binding", "conditions": "Lys2, A375 cells, read-out: inhibition of kinase labeling"}, "Erk2": {"biological_target": "Erk2 (Homo sapiens (Human), UniProt P28482)", "sequence (P28482 whole entry)": "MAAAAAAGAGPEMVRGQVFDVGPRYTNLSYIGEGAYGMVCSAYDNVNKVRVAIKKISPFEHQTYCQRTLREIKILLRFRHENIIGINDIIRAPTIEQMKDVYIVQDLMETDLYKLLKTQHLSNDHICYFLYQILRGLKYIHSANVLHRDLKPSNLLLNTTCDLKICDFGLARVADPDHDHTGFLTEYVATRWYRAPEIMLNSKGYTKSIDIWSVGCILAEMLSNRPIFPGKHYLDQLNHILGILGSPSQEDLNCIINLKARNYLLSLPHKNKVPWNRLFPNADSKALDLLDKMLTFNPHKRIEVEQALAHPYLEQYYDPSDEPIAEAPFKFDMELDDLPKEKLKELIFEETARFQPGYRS", "type": "binding", "conditions": "Lys2, A375 cells, read-out: inhibition of kinase labeling"}, "RSK2 domain2": {"biological_target": "RSK2 domain2 (Homo sapiens (Human), UniProt P51812)", "type": "binding", "conditions": "Lys2, A375 cells, read-out: inhibition of kinase labeling"}, "CaMK4": {"biological_target": "CaMK4 (Homo sapiens (Human), UniProt Q16566)", "sequence (Q16566 whole entry)": "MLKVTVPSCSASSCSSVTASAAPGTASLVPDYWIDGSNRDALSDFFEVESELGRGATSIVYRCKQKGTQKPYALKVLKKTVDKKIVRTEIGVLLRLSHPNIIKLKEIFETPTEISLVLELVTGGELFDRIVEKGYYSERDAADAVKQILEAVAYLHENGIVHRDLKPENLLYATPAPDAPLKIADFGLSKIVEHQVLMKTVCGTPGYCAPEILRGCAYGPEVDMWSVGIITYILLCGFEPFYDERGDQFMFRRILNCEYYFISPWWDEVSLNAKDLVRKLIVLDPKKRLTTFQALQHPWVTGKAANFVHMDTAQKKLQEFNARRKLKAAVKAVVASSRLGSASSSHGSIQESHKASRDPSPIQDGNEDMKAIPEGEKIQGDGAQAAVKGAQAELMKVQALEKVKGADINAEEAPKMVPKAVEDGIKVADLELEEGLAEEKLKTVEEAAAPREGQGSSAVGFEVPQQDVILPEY", "type": "binding", "conditions": "Lys2, A375 cells, read-out: inhibition of kinase labeling"}, "PIK3CB": {"biological_target": "PIK3CB (Homo sapiens (Human), UniProt P42338)", "type": "binding", "conditions": "ATP, A375 cells, read-out: inhibition of kinase labeling"}, "JNK1, JNK2, JNK3": {"tested_on": "JNK1, JNK2, JNK3", "type": "binding, Homo sapiens", "conditions": "Lys2, 1 μM, A375 cells"}, "GSK3A": {"biological_target": "GSK3A (Homo sapiens (Human), UniProt P49840)", "type": "binding", "conditions": "Lys2, A375 cells, read-out: inhibition of kinase labeling"}, "MARK3": {"biological_target": "MARK3 (Homo sapiens (Human), UniProt P27448)", "type": "binding", "conditions": "Lys1, A375 cells, read-out: inhibition of kinase labeling"}, "MAP2K6": {"biological_target": "MAP2K6 (Homo sapiens (Human), UniProt P52564)", "sequence (P52564 whole entry)": "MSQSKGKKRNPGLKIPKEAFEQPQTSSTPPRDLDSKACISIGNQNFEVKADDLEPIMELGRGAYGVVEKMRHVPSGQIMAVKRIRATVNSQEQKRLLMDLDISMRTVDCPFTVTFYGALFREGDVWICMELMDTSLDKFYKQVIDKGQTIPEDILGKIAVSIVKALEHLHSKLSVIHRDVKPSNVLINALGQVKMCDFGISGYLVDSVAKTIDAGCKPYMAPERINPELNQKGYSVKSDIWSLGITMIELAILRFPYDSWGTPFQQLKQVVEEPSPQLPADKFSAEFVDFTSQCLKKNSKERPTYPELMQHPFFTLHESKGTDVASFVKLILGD", "type": "binding", "conditions": "Lys2, A375 cells, read-out: inhibition of kinase labeling"}, "MAP2K7": {"biological_target": "MAP2K7 (Homo sapiens (Human), UniProt O14733)", "type": "binding", "conditions": "Lys2, A375 cells, read-out: inhibition of kinase labeling"}, "BARK1": {"biological_target": "BARK1 (Homo sapiens (Human), UniProt P25098)", "type": "binding", "conditions": "Lys2, A375 cells, read-out: inhibition of kinase labeling"}, "SGK3": {"biological_target": "SGK3 (Homo sapiens (Human), UniProt Q96BR1)", "type": "binding", "conditions": "Lys1, A375 cells, read-out: inhibition of kinase labeling"}, "HPK1": {"biological_target": "HPK1 (Homo sapiens (Human), UniProt Q92918)", "sequence (Q92918 whole entry)": "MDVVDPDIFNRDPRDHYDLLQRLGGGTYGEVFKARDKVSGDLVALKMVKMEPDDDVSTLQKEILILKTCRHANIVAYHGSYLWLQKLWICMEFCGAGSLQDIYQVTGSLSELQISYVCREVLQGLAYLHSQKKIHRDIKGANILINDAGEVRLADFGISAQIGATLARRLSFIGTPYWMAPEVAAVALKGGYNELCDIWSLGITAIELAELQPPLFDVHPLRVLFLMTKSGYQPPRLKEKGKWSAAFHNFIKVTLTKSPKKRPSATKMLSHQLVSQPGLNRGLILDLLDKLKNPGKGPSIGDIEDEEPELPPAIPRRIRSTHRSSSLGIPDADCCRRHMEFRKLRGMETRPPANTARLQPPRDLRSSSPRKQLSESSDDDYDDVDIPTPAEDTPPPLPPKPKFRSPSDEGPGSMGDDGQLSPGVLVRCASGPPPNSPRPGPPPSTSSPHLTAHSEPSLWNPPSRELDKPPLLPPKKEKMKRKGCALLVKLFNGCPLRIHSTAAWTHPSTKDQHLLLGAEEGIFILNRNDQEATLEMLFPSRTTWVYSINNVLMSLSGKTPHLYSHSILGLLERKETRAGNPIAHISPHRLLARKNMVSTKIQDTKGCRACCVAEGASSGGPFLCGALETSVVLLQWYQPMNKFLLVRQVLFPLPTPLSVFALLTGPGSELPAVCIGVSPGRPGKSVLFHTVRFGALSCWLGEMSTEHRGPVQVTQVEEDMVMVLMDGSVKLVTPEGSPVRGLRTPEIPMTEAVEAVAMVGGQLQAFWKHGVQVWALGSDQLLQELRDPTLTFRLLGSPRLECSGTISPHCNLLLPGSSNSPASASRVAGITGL", "type": "binding", "conditions": "Lys1, A375 cells, read-out: inhibition of kinase labeling"}, "MAP3K1": {"biological_target": "MAP3K1 (Homo sapiens (Human), UniProt Q13233)", "type": "binding", "conditions": "Lys2, A375 cells, read-out: inhibition of kinase labeling"}, "FGR": {"biological_target": "FGR (Homo sapiens (Human), UniProt P09769)", "type": "binding", "conditions": "Activation Loop, A375 cells, read-out: inhibition of kinase labeling"}, "MAP3K2, MAP3K3": {"tested_on": "MAP3K2, MAP3K3", "type": "binding, Homo sapiens", "conditions": "Lys2, 1 μM, A375 cells"}, "NDR2": {"biological_target": "NDR2 (Homo sapiens (Human), UniProt Q9Y2H1)", "type": "binding", "conditions": "Lys2, A375 cells, read-out: inhibition of kinase labeling"}, "NEK9": {"biological_target": "NEK9 (Homo sapiens (Human), UniProt Q8TD19)", "type": "binding", "conditions": "Lys2, A375 cells, read-out: inhibition of kinase labeling"}, "p38a": {"biological_target": "p38a (Homo sapiens (Human), UniProt Q16539)", "sequence (Q16539 whole entry, the tested form may be a part)": "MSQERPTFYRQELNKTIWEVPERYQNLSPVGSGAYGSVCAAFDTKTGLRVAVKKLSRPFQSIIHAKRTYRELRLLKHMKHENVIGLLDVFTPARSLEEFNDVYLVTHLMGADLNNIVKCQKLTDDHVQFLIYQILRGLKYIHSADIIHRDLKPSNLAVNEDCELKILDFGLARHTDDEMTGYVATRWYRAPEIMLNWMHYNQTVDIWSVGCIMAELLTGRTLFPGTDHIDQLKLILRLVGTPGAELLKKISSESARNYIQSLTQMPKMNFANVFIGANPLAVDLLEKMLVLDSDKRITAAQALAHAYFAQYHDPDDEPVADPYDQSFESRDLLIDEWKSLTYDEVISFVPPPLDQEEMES", "type": "binding", "conditions": "Protein Kinase Domain, A375 cells, read-out: inhibition of kinase labeling"}},
  "note": "Read-outs that look alike come from different tables or passages of the source.",
  "data": [
    {"compound": "Cc1ccc(C(=O)Nc2cccc(C(C)(C)C#N)c2)cc1NC(=O)c1cncc(-c2cccs2)c1", "note": "[I-6, N-(5-((3-(2-cyanopropan-2-yl)phenyl)carbamoyl)-2-methylphenyl)-5-(thiophen-2-yl)nicotinamide]", "values": [
      {"measurement": "inhibition of kinase labeling", "setting": "ABL, ARG", "value": ">90", "unit": "%"},
      {"measurement": "inhibition at 1 µM", "setting": "BRAF", "value": -20.3, "unit": "%"},
      {"measurement": "inhibition at 1 µM", "setting": "LOK", "value": 23.9, "unit": "%"},
      {"measurement": "inhibition at 1 µM", "setting": "PIP4K2A", "value": 12.8, "unit": "%"},
      {"measurement": "inhibition of kinase labeling", "setting": "[1]", "value": 27, "unit": "%"},
      {"measurement": "inhibition at 1 µM", "setting": "CK1a", "value": 25.1, "unit": "%"},
      {"measurement": "inhibition at 1 µM", "setting": "AurA", "value": -21.6, "unit": "%"},
      {"measurement": "inhibition at 1 µM", "setting": "SYK; Activation Loop, A375 cells", "value": -7.9, "unit": "%"},
      {"measurement": "inhibition at 1 µM", "setting": "SYK; Lys1, A375 cells", "value": -38.5, "unit": "%"},
      {"measurement": "inhibition of kinase labeling", "setting": "IKKe, TBK1", "value": 24.8, "unit": "%"},
      {"measurement": "inhibition at 1 µM", "setting": "CDC2", "value": -7.9, "unit": "%"},
      {"measurement": "inhibition at 1 µM", "setting": "RSK2 domain1", "value": 5, "unit": "%"},
      {"measurement": "inhibition at 1 µM", "setting": "MAP2K1", "value": 10.8, "unit": "%"},
      {"measurement": "inhibition at 1 µM", "setting": "LKB1", "value": 4.9, "unit": "%"},
      {"measurement": "inhibition at 1 µM", "setting": "MAP3K4", "value": 6.5, "unit": "%"},
      {"measurement": "inhibition at 1 µM", "setting": "JAK1", "value": 16.6, "unit": "%"},
      {"measurement": "inhibition at 1 µM", "setting": "CaMK1d", "value": -17.8, "unit": "%"},
      {"measurement": "inhibition of kinase labeling", "setting": "FYN, SRC, YES", "value": 55.7, "unit": "%"},
      {"measurement": "inhibition at 1 µM", "setting": "PIK3C3", "value": -23.1, "unit": "%"},
      {"measurement": "inhibition at 1 µM", "setting": "Erk1", "value": -3, "unit": "%"},
      {"measurement": "inhibition of kinase labeling", "setting": "PKD1, PKD2", "value": "−2.5", "unit": "%"},
      {"measurement": "inhibition at 1 µM", "setting": "eEF2K", "value": 12, "unit": "%"},
      {"measurement": "inhibition at 1 µM", "setting": "PYK2", "value": 5.4, "unit": "%"},
      {"measurement": "inhibition at 1 µM", "setting": "PKCi", "value": -17.5, "unit": "%"},
      {"measurement": "inhibition at 1 µM", "setting": "Erk2", "value": -11, "unit": "%"},
      {"measurement": "inhibition at 1 µM", "setting": "RSK2 domain2", "value": -15.8, "unit": "%"},
      {"measurement": "inhibition at 1 µM", "setting": "CaMK4", "value": 20.7, "unit": "%"},
      {"measurement": "inhibition at 1 µM", "setting": "PIK3CB", "value": 2.8, "unit": "%"},
      {"measurement": "inhibition of kinase labeling", "setting": "JNK1, JNK2, JNK3", "value": 11.7, "unit": "%"},
      {"measurement": "inhibition at 1 µM", "setting": "GSK3A", "value": 17.3, "unit": "%"},
      {"measurement": "inhibition at 1 µM", "setting": "MARK3", "value": -2.2, "unit": "%"},
      {"measurement": "inhibition at 1 µM", "setting": "MAP2K6", "value": 9.4, "unit": "%"},
      {"measurement": "inhibition at 1 µM", "setting": "MAP2K7", "value": -3, "unit": "%"},
      {"measurement": "inhibition at 1 µM", "setting": "BARK1", "value": -1.2, "unit": "%"},
      {"measurement": "inhibition at 1 µM", "setting": "SGK3", "value": -7.2, "unit": "%"},
      {"measurement": "inhibition at 1 µM", "setting": "HPK1", "value": 7.5, "unit": "%"},
      {"measurement": "inhibition at 1 µM", "setting": "MAP3K1", "value": 9.8, "unit": "%"},
      {"measurement": "inhibition at 1 µM", "setting": "FGR", "value": 3.5, "unit": "%"},
      {"measurement": "inhibition of kinase labeling", "setting": "MAP3K2, MAP3K3", "value": "−15.3", "unit": "%"},
      {"measurement": "inhibition at 1 µM", "setting": "NDR2", "value": -12.5, "unit": "%"},
      {"measurement": "inhibition at 1 µM", "setting": "NEK9", "value": -0.3, "unit": "%"},
      {"measurement": "inhibition at 1 µM", "setting": "p38a", "value": 85.1, "unit": "%"}
    ]}
  ]
}
